Experimental data: PMC10703884, “Targeting the COMMD4–H2B protein complex in lung cancer” (British Journal of Cancer, 2023)
No end group written: not given here.

Test system: COMMD4
Assay: FLAG pull-down in control and COMMD4 siRNA depleted cells
Format: binding
Settings: overexpressed FLAG-H2B after control or COMMD4 siRNA
Protocol: For siRNA transfections, cells were transfected with negative control or COMMD4 siRNA #2 (CCAUGUCCCUCUCAGCAGA[dT][dT] MISSION® siRNA, Sigma-Aldrich) using RNAiMax (Life Technologies) as previously described and samples were analysed 48 to 72 h post-transfection. The H2B wild-type (FLAG-H2BWT) and mutant (FLAG-H2BMUT1) expression constructs were generated with the 10-amino acid peptide and the corresponding mutant cloned into the expression vector pCDNA3.1/(+)-N-DYK containing an N-terminal FLAG tag and a C-terminal nuclear localisation signal (AAKRVKLDS) (GenScript). A70K FLAG-COMMD4 expression construct was generated by mutating the corresponding COMMD4-FLAG construct to harbour an A70K mutation (GenScript). Cells were mock-transfected, or transfected with FLAG-H2BWT/FLAG-H2BMUT1, or COMMD4-FLAG/A70K with FuGENE® HD (Promega) using the manufacturer’s protocol and analysed 24 h post-transfection.
Co-immunoprecipitations were performed as previously summarised, using ice-cold NP40 buffer. Assays for co-immunoprecipitations were performed at 4 °C from HEK293T, transiently expressing the FLAG-H2B WT or MUT plasmid. Proteins were captured using anti-FLAG M2 Dynabeads (ThermoFisher) and washed three times in NP40 buffer prior to analysis.
To support predicted models, we next designed peptides to perform mapping. […]

In the case of “FLAG-H2BWT: 10-amino acid peptide cloned into expression vector containing an N-terminal FLAG tag and a C-terminal nuclear localisation signal ({FLAG}-SFVNDIFERIAAKRVKLDS)”, the “binding to COMMD4 in control or COMMD4 siRNA-depleted cells” value is reported as “binding to COMMD4 was only possible in control siRNA-depleted cells”.
